# In US20190136292A1, “Universal Calibration Method for Assaying Enzymatic Inhibitors” (Diagnostica Stago, priority 2016, published 2019):
# Values joined by “and” are separate entries in the source; they are usually repeats but may differ in a detail not shown here. Equal entries are not always repeated. Where two headings read alike, the source gives them in different places.
# Target: F.Xa (factor Xa of bovine origin) (Bos taurus, UniProt P00743)
# Details: for conversion chart constant e (equation 2, anti-Xa activity % to ng/ml) / conversion chart constant i (equation 2, anti-Xa activity % to ng/ml): non-linear regression of equation 2
# Description: The reagents from the commercial kit STA®—Liquid Anti-Xa (Diagnostica Stago, Asniéres sur Seine, France), F.Xa (factor Xa of bovine origin) and substrate (MAPA-Gly-Arg-pNA) were used. These commercial reagents and also the pool of normal human plasma Pool Norm (Diagnostica Stago, Asnieres sur Seine, France), the Owren Koller buffer (OKB) (pH 7.35, STA®—Owren-Koller, Diagnostica Stago, Asnieres sur Seine, France) and the desorption solution (DU) STA®—Desorb U (Diagnostica Stago, Asnieres sur Seine, France) were regenerated at room temperature for 30 minutes, as recommended by the manufacturer.
# The kinetics were monitored by colorimetry at 405 nm, detecting the release of para-nitroanilide (pNA). The optical density (OD) was measured every two seconds. Two methodologies were optimized for assaying the three direct oral anti-Xa anticoagulants: the broad-range methodology and the narrow-range methodology. This is because the broad-range methodology makes it possible to assay the anticoagulants over the whole of the desired range; however, since the measurement of low concentrations of these anticoagulants requires great precision a narrow-range methodology was therefore developed.
# In broad range, 6.25 μl of biological sample (plasma) were diluted with OKB in a final volume of 50 μl. The microcuvette was incubated for 240 seconds at 37° C. in the presence of 150 μl of substrate. The reaction was started by the addition of 150 μl of F.Xa, incubated beforehand at 37° C. In narrow range, 25 μl of sample were diluted with 25 μl of OKB. The experimental conditions for addition of substrate and enzyme are the same as for the broad-range methodology. The gradients were determined between 50 and 80 seconds.
# The calibration was carried out from a range of F.Xa composed of 10 points ranging from 10% to 100% F.Xa, corresponding to an anti-Xa activity ranging from 90% to 0%. The range was created from reagents from the kit STA® Liquid Anti-Xa. The F.Xa (2 ml, 1.8 ml, . . . , 0.2 ml) was diluted in OKB (0 ml, 0.2 ml . . . 1.8 ml) for a final volume of 2 ml. The pool of healthy plasmas dated 04/2014 was used for this experiment. 5% DMSO was diluted to 1/20th in the plasma. The results (measurements of the OD/min between 50 and 80 seconds) were determined in two replicates.
# The gradients of the kinetics measured for the 10 calibration points make it possible to plot the graph of anti-Xa activity (%) as a function of the OD/min. The equation of the line obtained is used to convert the OD/min of the samples tested into anti-Xa activity as percentage. The equation of the line is given by a polynomial regression of first order or of second order.
# The parameters of the chart, specific to each direct oral anticoagulant (DOA), were determined for both of the methodologies (broad-range methodology and narrow-range methodology) by a non-linear regression of equation 2 on a few experimental points. […] The OD/min was measured for each sample between 50 and 80 seconds.
# The limit of blank (LoB) was determined according to a standard procedure. The five different plasmas used were those dated January 2011, March 2012, April 2014, November 2014 and February 2015. Four replicates were carried out each day for three days, on the same automated device. The tests were carried out for the broad-range and narrow-range methodologies.
# The limit of detection (LoD) was determined according to a standard procedure. Low-analyte plasmas were prepared. The overloads were carried out to 1/20th. The plasma dated 04/2014 was used. […] In narrow range, the concentrations of the overloads were 5 ng/ml for the three anticoagulants. Five overloads were produced for a final volume of 900 μl. When the regression of the universal calibration was a second-order polynomial, the concentrations of analytes in broad range and in narrow range were 2 ng/ml for the three direct oral anticoagulants (DOAs). The final volume of the overloads was 1000 μl. Each overload was separated into three tubes.
# [1] = broad-range methodology, plasma sample diluted 1/8 in OKB, linear universal calibration
# [2] = narrow-range methodology, plasma sample diluted 1/2 in OKB, linear universal calibration
# [3] = optimization in narrow-range methodology, universal calibration regressed by second-order polynomial
# Sequence of F.Xa (factor Xa of bovine origin) (P00743 234-492 limits assumed): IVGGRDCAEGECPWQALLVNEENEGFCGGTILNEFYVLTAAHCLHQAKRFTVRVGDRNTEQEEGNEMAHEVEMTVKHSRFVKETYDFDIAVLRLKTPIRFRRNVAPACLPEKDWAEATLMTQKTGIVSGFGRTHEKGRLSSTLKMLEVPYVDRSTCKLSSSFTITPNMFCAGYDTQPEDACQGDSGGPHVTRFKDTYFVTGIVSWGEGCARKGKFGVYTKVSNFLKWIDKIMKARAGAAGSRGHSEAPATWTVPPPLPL
# Sequence of F.Xa (factor Xa of bovine origin) (P00743 41-180 partner limits assumed): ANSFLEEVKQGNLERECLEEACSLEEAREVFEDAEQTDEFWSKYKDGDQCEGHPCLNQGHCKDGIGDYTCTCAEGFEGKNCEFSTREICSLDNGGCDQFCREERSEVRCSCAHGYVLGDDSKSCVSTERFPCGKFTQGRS
smiles,measurement,setting,value
COc1ccc(-n2nc(C(N)=O)c3c2C(=O)N(c2ccc(N4CCCCC4=O)cc2)CC3)cc1 [apixaban],"conversion chart constant e (equation 2, anti-Xa activity % to ng/ml)",broad-range methodology,14.66
same,"conversion chart constant i (equation 2, anti-Xa activity % to ng/ml)",broad-range methodology,1.35
same,LoB (limit of blank),[1],16.613 ng/mL
same,LoD (limit of detection),[1],21.8 ng/mL and 21.723 ng/mL
same,"conversion chart constant e (equation 2, anti-Xa activity % to ng/ml)",narrow-range methodology,13.23
same,"conversion chart constant i (equation 2, anti-Xa activity % to ng/ml)",narrow-range methodology,2.91
same,LoB (limit of blank),[2],5.450 ng/mL
same,LoD (limit of detection),[2],6.9 ng/mL and 6.882 ng/mL
same,LoB (limit of blank),[3],2.759 ng/mL
same,LoD (limit of detection),[3],4.001 ng/mL
